Measured values published in publication PMC8911046, “Identification of Kukoamine A, Zeaxanthin, and Clexane as New Furin Inhibitors” (International Journal of Molecular Sciences, 2022).
Values joined by “and” are separate entries in the source; they are usually repeats but may differ in a detail not shown here. Equal entries are not always repeated. Residues, ends and D or L forms follow the SMILES beside them. *: point of attachment. Decanoyl = CCCCCCCCCC(=O)*; CH2Cl = ClC*

Columns and labels:
human recombinant furin = molecular target: T1, human recombinant furin (Homo sapiens, UniProt P09958); assay: Fluorogenic furin inhibition assay, recombinant furin; type: biochemical; settings: 3.6 nM human recombinant furin, 50 µM fluorogenic substrate, pH 9
T1 construct: purchased R&D Systems 1503-SE-010
Procedure: Clexane (LMWH, enoxaparin sodium, Clexane, Sanofi Aventis S.A., Barcelona, Spain) and each candidate compound selected by virtual screening were assayed as inhibitors of human recombinant furin (1503-SE-010; Lot#INK2320031; R&D Systems) and physiological furin secreted from U-251 MG cells. For both types of furin, the fluorogenic specific substrate (mentioned above) was used. […] Compounds were reconstituted in their appropriate solvents (distilled water, ethanol, PBS, etc.), according to the supplier’s instructions. In a 96-well black plate, U-251 MG secretome concentrated 10× or 3.6 nM human recombinant furin were incubated with different compound concentrations for 10 min at room temperature, and then, 50 µM furin specific fluorogenic substrate was added to every well, except one blank. Fluorescence was recorded in the Multiskan Go plate reader at 380 and 460 nm for emission and excitation wavelengths, respectively, at 37 °C for 30 min.
The IC50 was calculated only for those compounds that inhibited recombinant and physiological furin. For each compound concentration, furin activity’s maximum velocity (mRFU/min) was recorded. Then, by using GraphPad software (v. 8), the correlation between the decimal logarithm (compound concentration) and furin activity’s maximum velocity was calculated by nonlinear regression (curve fit) for XY analyses. […]

[1] = set-up: method as in PMID 27241194, PMID 28254666; settings: rats or mice, doses between 5 and 20 mg/kg; cited from earlier work
293T HEK cell line = assay: Cell viability by 7-AAD flow cytometry; type: cell-based; settings: for Alive (%) / Dead (%): 293T HEK; for percentage of live cells: half of the IC50 for physiological furin, no compound 94.25% ± 3.18%
Procedure: New furin inhibitors identified by virtual screening were tested in cell viability assays. The 293T HEK cell line (human embryonic kidney cell line purchased from American Type Culture Collection) was used as healthy cell model. They were cultured in DMEM containing 4,5 g/L glucose, supplemented with 10% fetal bovine serum, 1% GlutaMax, and 0,1% gentamicin. They were maintained in Corning® T-75 flasks (catalog #430641; ThermoFisher Scientific, Waltham, MA, USA) at 37 °C and 5% carbon dioxide. At 100% cellular confluence, cells were subcultured in 12-well plates (flat bottom, sterile, NUNC brand, Biolab, Madrid, Spain) at 100,000 cells/mL for 24 h. Then, different concentrations (double, half, and full IC50 concentrations for physiological furin) of furin inhibitors were added to cells for 24 h, and cells were collected afterward. The experiment was run in duplicates. Then, the cell pellet was resuspended in running buffer (autoMACS ® Running Buffer–MACS Separation Buffer; order no.:130-091-221; Miltenyi Biotec, Madrid, Spain) and 7-AAD (Cat: 51-68981E; BD Biosciences, Madrid, Spain). Finally, this solution was evaluated in a flow cytometer (BD Accuri™ C6 Plus Flow Cytometer; BD Biosciences, Madrid, Spain) to calculate mortality rates. A blank solution with cell pellet resuspended in running buffer was used to discard cell autofluorescence. The results were analyzed in FlowJo software (v. 10).

[2] = molecular target: T2, furin from the U-251 MG secretome (Homo sapiens, UniProt P09958); assay: Furin inhibition assay in coadjuvants with CMK; type: biochemical; settings: CMK alone, read-out: IC50 for CMK alone, physiological furin
T2 construct: physiological furin secreted from U-251 MG cells; endogenous in cells; host or cells: U-251 MG human glioblastoma cells; conditioned medium (secretome) concentrated 10x
Procedure: The IC50 was calculated only for those compounds that inhibited recombinant and physiological furin. For each compound concentration, furin activity’s maximum velocity (mRFU/min) was recorded. Then, by using GraphPad software (v. 8), the correlation between the decimal logarithm (compound concentration) and furin activity’s maximum velocity was calculated by nonlinear regression (curve fit) for XY analyses. From this statistical method, the IC50 was calculated with a 95% confidence interval (CI).
Since furin inhibition by CMK had been tested only in physiological conditions, adjuvant inhibition assays were performed with furin from the U-251 MG secretome. Inhibition was assessed by using different concentrations of CMK (Cat.No. B5437; APExBIO) and the IC50 concentrations of selected virtual screening compounds or Clexane. In a 96-well black plate, various CMK (0–50 µM) concentrations were incubated with the IC50 concentrations of the rest of the compounds and with 10× U-251 MG secretome as described above. After 10 min incubation at room temperature, 50 µM furin specific fluorogenic substrate was added and the plate was read in a Multiskan Go plate reader at 380 and 460 nm for emission and excitation wavelengths, respectively, at 37 °C for 30 min.

[3] = 2xIC50, single replicates of duplicate
[4] = IC50, single replicates of duplicate
[5] = IC50/2, single replicates of duplicate
[6] = 293T cells, double IC50 concentration, 24 h

T1 sequence (P09958 108-794): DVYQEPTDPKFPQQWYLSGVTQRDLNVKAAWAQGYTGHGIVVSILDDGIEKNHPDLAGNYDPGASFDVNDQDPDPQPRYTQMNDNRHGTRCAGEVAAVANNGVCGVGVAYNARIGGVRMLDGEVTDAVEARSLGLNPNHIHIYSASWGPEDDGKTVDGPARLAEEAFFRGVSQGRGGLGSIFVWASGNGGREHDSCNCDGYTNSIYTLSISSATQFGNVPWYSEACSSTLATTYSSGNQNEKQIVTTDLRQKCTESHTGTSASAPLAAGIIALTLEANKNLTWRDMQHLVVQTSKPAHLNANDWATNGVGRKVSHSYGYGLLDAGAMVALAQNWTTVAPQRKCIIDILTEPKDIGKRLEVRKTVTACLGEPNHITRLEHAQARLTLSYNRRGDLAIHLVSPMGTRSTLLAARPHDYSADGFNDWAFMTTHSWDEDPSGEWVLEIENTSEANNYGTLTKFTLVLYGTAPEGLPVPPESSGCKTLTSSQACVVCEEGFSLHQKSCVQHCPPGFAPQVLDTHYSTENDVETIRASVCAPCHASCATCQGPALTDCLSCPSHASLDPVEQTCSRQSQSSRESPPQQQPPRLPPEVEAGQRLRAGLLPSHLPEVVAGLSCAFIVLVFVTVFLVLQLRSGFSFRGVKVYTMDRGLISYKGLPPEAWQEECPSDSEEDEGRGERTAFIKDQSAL
T2 sequence (P09958 108-715 limits assumed): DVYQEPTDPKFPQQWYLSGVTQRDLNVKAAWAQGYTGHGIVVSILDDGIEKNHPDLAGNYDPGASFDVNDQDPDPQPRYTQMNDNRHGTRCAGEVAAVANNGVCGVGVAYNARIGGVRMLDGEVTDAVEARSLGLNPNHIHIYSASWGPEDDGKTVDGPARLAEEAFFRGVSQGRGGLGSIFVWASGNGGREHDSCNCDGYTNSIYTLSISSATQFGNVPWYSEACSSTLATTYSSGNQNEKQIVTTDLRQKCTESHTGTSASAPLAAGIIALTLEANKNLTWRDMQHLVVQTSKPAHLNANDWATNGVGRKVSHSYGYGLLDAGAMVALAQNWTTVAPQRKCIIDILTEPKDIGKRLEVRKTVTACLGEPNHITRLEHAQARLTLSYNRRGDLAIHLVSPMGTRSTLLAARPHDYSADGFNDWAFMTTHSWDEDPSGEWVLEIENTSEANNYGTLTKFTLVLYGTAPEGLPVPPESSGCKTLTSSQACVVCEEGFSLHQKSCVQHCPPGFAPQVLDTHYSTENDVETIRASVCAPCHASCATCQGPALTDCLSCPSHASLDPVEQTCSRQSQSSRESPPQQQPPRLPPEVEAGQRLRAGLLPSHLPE

IC50 [2] [µM] | Compound | IC50 (human recombinant furin) [µM] | adverse effects [1] | Alive (%) (293T HEK cell line; [3]) | Dead (%) (293T HEK cell line; [3]) | Alive (%) (293T HEK cell line; [4]) | Dead (%) (293T HEK cell line; [4]) | Alive (%) (293T HEK cell line; [5]) | Dead (%) (293T HEK cell line; [5]) | effect on cell viability (293T HEK cell line; [6]) | effect on cell viability (293T HEK cell line; 293T cells, full IC50 concentration, 24 h) | percentage of live cells (293T HEK cell line; 293T cells, 24 h) | reduction of cell viability (293T HEK cell line; 293T cells, IC50 concentration, 24 h) [%]
– | O=C(CCc1ccc(O)c(O)c1)NCCCNCCCCNCCCNC(=O)CCc1ccc(O)c(O)c1 [Kukoamine A] | 1070 | no significant reported adverse effects | 6.25% and 5.88% | 94.1% and 93.8% | 8.33% and 0% | 91.7% and 100% | 89.8% and 85.3% | 10.2% and 14.7% | significantly reduced | significantly reduced | 87.55% ± 1.48% | –
– | CC1=C(/C=C/C(C)=C/C=C/C(C)=C/C=C/C=C(C)/C=C/C=C(C)/C=C/C2=C(C)C[C@@H](O)CC2(C)C)C(C)(C)C[C@H](O)C1 [Zeaxanthin] | 90.5 | – | 1.10% and 15.7% | 84.3% and 98.9% | 32.8% and 33.9% | 67.2% and 66.1% | 78.2% and 84.0% | 21.8% and 16.0% | nearly total death | – | 81.1% ± 4.1% | 61
4.2 | CCCCCCCCCC(=O)N[C@@H](CCCNC(=N)N)C(=O)N[C@H](C(=O)N[C@@H](CCCCN)C(=O)N[C@@H](CCCNC(=N)N)C(=O)CCl)C(C)C [CMK, Decanoyl-Arg-Val-Lys-Arg-chloromethylketone] (Decanoyl-RVKR-CH2Cl) | – | – | – | – | – | – | – | – | – | – | – | –
